The test system of test [1] is MOLM-13 cells. The test can be described thus: Cell viability assay (CellTiter-Glo) in MOLM-13 cells, alone or with gilteritinib. Type of test: cell-based. To be noted: Homo sapiens, MOLM-13 cells, CellTiter-Glo. Background: In ATP-based viability assays light output follows the ATP content of the culture.
The subject of test [2] is MV4;11 cells. The test can be described thus: Cell viability assay (CellTiter-Glo) in MV4;11 cells, alone or with gilteritinib. Type of test: cell-based. As to conditions: Homo sapiens, MV4;11 cells, CellTiter-Glo, read-out: MV4.
The mark [3] stands for this setting: MOLM-13, 72 h, compound alone (without gilteritinib), three days, read-out: MOLM-13 IC50.
Setting [4] is: MOLM-13, 72 h, with gilteritinib 20 nM, three days, read-out: MOLM-13 IC50 gilteritinib.
Setting [5] is: MV4-11, 72 h, compound alone (without gilteritinib), three days, 11 IC50.
Where [6] appears, read: MV4-11, 72 h, with gilteritinib 10 nM, three days, 11 IC50 gilteritinib.
Setting [7] is: MOLM-13, 72 h, compound with gilteritinib 20 nM, three days, read-out: MOLM-13 IC50 gilteritinib.
Setting [8] is: MV4-11, 72 h, compound with gilteritinib 10 nM, three days, 11 IC50 gilteritinib.

Like-named read-outs stand apart in the source and are kept apart here. Some results are limits rather than exact numbers.

For `O=C1CCC(N2C(=O)c3ccc(NCCCC4CCCC(n5cc(-c6cnc7ccccc7n6)cn5)C4)cc3C2=O)C(=O)N1` (stereo not drawn) [GS-112, 2-(2,6-Dioxopiperidin-3-yl)-5-((3-(3-(4-(quinoxalin-2-yl)-1H-pyrazol-1-yl)cyclohexyl)propyl)amino)isoindoline-1,3-dione], the IC50 in test [1] (setting [3]) is more than 1000 nM; in test [1] (setting [4]) it was 100 to 1000 nM; in test [2] (setting [5]), more than 1000 nM; in test [2] (setting [6]) it was 100 to 1000 nM.
In the case of `O=C1CCC(N2C(=O)c3ccc(NCCCc4cccc(N5CCC(c6ccccc6)CC5)c4F)cc3C2=O)C(=O)N1` (stereo not drawn) [GS-507, 2-(2,6-Dioxopiperidin-3-yl)-5-((3-(2-fluoro-3-(4-phenylpiperidin-1-yl)phenyl)propyl)amino)isoindoline-1,3-dione], the IC50 in test [1] (72 h, compound alone (without gilteritinib), three days, read-out: MOLM-13 IC50) was more than 1000 nM; in test [1] (72 h, compound with gilteritinib 20 nM, three days, read-out: MOLM-13 IC50 gilteritinib), 10 to 100 nM; in test [2] (72 h, compound alone (without gilteritinib), three days, 11 IC50), more than 1000 nM; in test [2] (72 h, compound with gilteritinib 10 nM, three days, 11 IC50 gilteritinib), 100 to 1000 nM.
Take `CN1CCN(c2nccc(-c3cnn([C@H]4C[C@H](CCCNc5ccc6c(c5)C(=O)N(C5CCC(=O)NC5=O)C6=O)C4)c3)n2)CC1` (stereo partly drawn) [GS-436, 2-(2,6-dioxopiperidin-3-yl)-5-((3-(trans-3-(4-(2-(4-methylpiperazin-1-yl)pyrimidin-4-yl)-1H-pyrazol-1-yl)cyclobutyl)propyl)amino)isoindoline-1,3-dione]: the IC50 is more than 1000 nM in test [1] (setting [3]), 100 to 1000 nM in test [1] (setting [7]), more than 1000 nM in test [2] (setting [5]) and 100 to 1000 nM in test [2] (setting [8]).
Regarding `Cc1nc2ccccc2nc1-c1cnn(CCCCCCCc2ccc3c(c2)C(=O)N(C2CCC(=O)NC2=O)C3)c1` (stereo not drawn) [GS-134, 3-(6-(7-(4-(3-Methylquinoxalin-2-yl)-1H-pyrazol-1-yl)heptyl)-1-oxoisoindolin-2-yl)piperidine-2,6-dione], the IC50 is 10 to 100 nM in test [1] (setting [3]), less than 10 nM in test [1] (setting [4]), 10 to 100 nM in test [2] (setting [5]) and 10 to 100 nM in test [2] (setting [6]).
As for `O=C1CCC(N2C(=O)c3ccc(NCCC4CC(C(=O)N5CCC(n6cc(-c7cnc8ccccc8n7)cn6)CC5)C4)cc3C2=O)C(=O)N1` (stereo not drawn) [GS-205, 2-(2,6-Dioxopiperidin-3-yl)-5-((2-(3-(4-(4-(quinoxalin-2-yl)-1H-pyrazol-1-yl)piperidine-1-carbonyl)cyclobutyl)ethyl)amino)isoindoline-1,3-dione], the IC50 was 10 to 100 nM in test [1] (setting [3]), less than 10 nM in test [1] (setting [4]), 10 to 100 nM in test [2] (setting [5]) and less than 10 nM in test [2] (setting [6]).
For the molecule `Cc1nc(-c2cn([C@H]3C[C@H](CNc4ccc5c(c4)C(=O)N(C4CCC(=O)NC4=O)C5=O)C3)nc2C2CC2)ccc1Cl` (stereo partly drawn) [GS-609, 5-(((trans-3-(4-(5-Chloro-6-methylpyridin-2-yl)-3-cyclopropyl-1H-pyrazol-1-yl)cyclobutyl)methyl)amino)-2-(2,6-dioxopiperidin-3-yl)isoindoline-1,3-dione], the IC50 was 10 to 100 nM in test [1] (setting [3]), less than 10 nM in test [1] (setting [7]), 10 to 100 nM in test [2] (setting [5]) and less than 10 nM in test [2] (setting [8]).
For `O=C1CCC(N2C(=O)c3cccc(NCCCC4CC(n5cc(-c6cnc7ccccc7n6)cn5)C4)c3C2=O)C(=O)N1` (stereo not drawn) [GS-565, 2-(2,6-Dioxopiperidin-3-yl)-4-((3-(3-(4-(quinoxalin-2-yl)-1-pyrazol-1-yl)cyclobutyl)propyl)amino)isoindoline-1,3-dione], the IC50 was more than 1000 nM in test [1] (setting [3]), 10 to 100 nM in test [1] (setting [7]), more than 1000 nM in test [2] (setting [5]) and 100 to 1000 nM in test [2] (setting [8]).
Consider `O=C1CCC(N2C(=O)c3ccc(C4CN(CCCCn5cc(-c6cnc7ccccc7n6)cn5)C4)cc3C2=O)C(=O)N1` (stereo not drawn) [GS-364, 2-(2,6-Dioxopiperidin-3-yl)-5-(1-(4-(4-(quinoxalin-2-yl)-1H-pyrazol-1-yl)butyl)azetidin-3-yl)isoindoline-1,3-dione], for which the IC50 in test [1] (setting [3]), in test [1] (setting [4]), in test [2] (setting [5]) and in test [2] (setting [6]) was more than 1000 nM each time.
Regarding `O=C1CCC(N2C(=O)c3ccc(NCCCCCC(=O)N4CCC(F)(c5ccccc5)CC4)cc3C2=O)C(=O)N1` (stereo not drawn) [GS-348, 2-(2,6-Dioxopiperidin-3-yl)-5-((6-(4-fluoro-4-phenylpiperidin-1-yl)-6-oxohexyl)amino)isoindoline-1,3-dione], the IC50 in test [1] (setting [3]) is 10 to 100 nM; in test [1] (setting [4]), less than 10 nM; in test [2] (setting [5]), 10 to 100 nM; in test [2] (setting [6]), less than 10 nM.
Take `O=C1CCC(N2Cc3c(OCc4ccc(CN5CCC(n6cc(-c7cnc8ccccc8n7)cn6)CC5)cc4)cccc3C2=O)C(=O)N1` (stereo not drawn) [GS-108, 3-(1-Oxo-4-((4-((4-(4-(quinoxalin-2-yl)-1H-pyrazol-1-yl)piperidin-1-yl)methyl)benzyl)oxy)isoindolin-2-yl)piperidine-2,6-dione]: the IC50 in test [1] (setting [3]) is more than 1000 nM; in test [1] (setting [4]), 10 to 100 nM; in test [2] (setting [5]) it was more than 1000 nM; in test [2] (setting [6]), 100 to 1000 nM.
Consider `CNc1cccc(-c2cn([C@H]3C[C@H](CNc4ccc5c(c4)C(=O)N(C4CCC(=O)NC4=O)C5=O)C3)nc2C2CC2)n1` (stereo partly drawn) [GS-263, 5-(((trans-3-(3-Cyclopropyl-4-(6-(methylamino)pyridin-2-yl)-1H-pyrazol-1-yl)cyclobutyl)methyl)amino)-2-(2,6-dioxopiperidin-3-yl)isoindoline-1,3-dione], for which the IC50 was in the range of 100 to 1000 nM in test [1] (setting [3]), 10 to 100 nM in test [1] (setting [4]), 100 to 1000 nM in test [2] (setting [5]) and 10 to 100 nM in test [2] (setting [6]).
On to `O=C1CCC(N2C(=O)c3ccc(NCCCCCC(=O)N4CCC(N5CCOCC5)CC4)cc3C2=O)C(=O)N1` (stereo not drawn) [GS-011, 2-(2,6-Dioxopiperidin-3-yl)-5-((6-(4-morpholinopiperidin-1-yl)-6-oxohexyl)amino)isoindoline-1,3-dione], for which the IC50 in test [1] (MOLM-13, 72 h, with 20 nM gilteritinib, 3 days, read-out: MOLM-13 IC50 gilteritinib) was 270 nM; in test [1] (MOLM-13, 72 h, without gilteritinib, 3 days, read-out: MOLM-13 IC50), more than 10000 nM; in test [2] (MV4-11, 72 h, with 10 nM gilteritinib, 3 days, 11 IC50 gilteritinib) it was more than 10000 nM; in test [2] (MV4-11, 72 h, without gilteritinib, 3 days, 11 IC50), more than 10000 nM.
Take `CN(c1ccccc1)C1CN(C(=O)CCCCCNc2ccc3c(c2)C(=O)N(C2CCC(=O)NC2=O)C3=O)C1` (stereo not drawn) [GS-337, 2-(2,6-Dioxopiperidin-3-yl)-5-((6-(3-(methyl(phenyl)amino)azetidin-1-yl)-6-oxohexyl)amino)isoindoline-1,3-dione]: the IC50 in test [1] (setting [3]) was more than 1000 nM; in test [1] (setting [4]), 100 to 1000 nM; in test [2] (setting [5]), more than 1000 nM; in test [2] (setting [6]), more than 1000 nM.
`O=C1CCC(N2C(=O)c3ccc(NCCCC4CC(n5cc(-c6cnc7ccc(CC8CNC8)cc7n6)cn5)C4)cc3C2=O)C(=O)N1` (stereo not drawn) [GS-566, 5-((3-(3-(4-(7-(Azetidin-3-ylmethyl)quinoxalin-2-yl)-1H-pyrazol-1-yl)cyclobutyl)propyl)amino)-2-(2,6-dioxopiperidin-3-yl)isoindoline-1,3-dione]: the IC50 was more than 1000 nM in test [1] (setting [3]), 100 to 1000 nM in test [1] (setting [7]), more than 1000 nM in test [2] (setting [5]) and 100 to 1000 nM in test [2] (setting [8]).
Regarding `O=C1CCC(N2C(=O)c3ccc(NCCC[C@H]4C[C@H](n5cc(-c6nccc7ccncc67)c(C6CC6)n5)C4)cc3C2=O)C(=O)N1` (stereo partly drawn) [GS-630, 5-((3-(trans-3-(3-Cyclopropyl-4-(2,7-naphthyridin-1-yl)-1H-pyrazol-1-yl)cyclobutyl)propyl)amino)-2-(2,6-dioxopiperidin-3-yl)isoindoline-1,3-dione], the IC50 in test [1] (setting [3]) is more than 1000 nM; in test [1] (setting [7]) it was less than 10 nM; in test [2] (setting [5]), 100 to 1000 nM; in test [2] (setting [8]), less than 10 nM.
Take `CN1CCN(c2cccc(-c3cn([C@H]4C[C@H](CNc5ccc6c(c5)C(=O)N(C5CCC(=O)NC5=O)C6=O)C4)nc3C3CC3)n2)CC1` (stereo partly drawn) [GS-440, 5-(((trans-3-(3-cyclopropyl-4-(6-(4-methylpiperazin-1-yl)pyridin-2-yl)-1H-pyrazol-1-yl)cyclobutyl)methyl)amino)-2-(2,6-dioxopiperidin-3-yl)isoindoline-1,3-dione]: the IC50 in test [1] (setting [3]), in test [1] (setting [7]), in test [2] (setting [5]) and in test [2] (setting [8]) was 100 to 1000 nM in each case.
Consider `COc1ccc2ncc(-c3cnn(CCCCCCNc4ccc5c(c4)C(=O)N(C4CCC(=O)NC4=O)C5=O)c3)nc2c1` (stereo not drawn) [GS-387, 2-(2,6-Dioxopiperidin-3-yl)-5-((6-(4-(7-methoxyquinoxalin-2-yl)-1H-pyrazol-1-yl)hexyl)amino)isoindoline-1,3-dione], for which the IC50 was 100 to 1000 nM in test [1] (setting [3]), less than 10 nM in test [1] (setting [4]), 100 to 1000 nM in test [2] (setting [5]) and 10 to 100 nM in test [2] (setting [6]).
On to `CC(C)n1ncc2cnc(-c3cn([C@H]4C[C@H](CNc5ccc6c(c5)C(=O)N(C5CCC(=O)NC5=O)C6=O)C4)nc3C3CC3)cc21` (stereo partly drawn) [GS-614, 5-(((trans-3-(3-Cyclopropyl-4-(1-isopropyl-1H-pyrazolo[4,3-c]pyridin-6-yl)-1H-pyrazol-1-yl)cyclobutyl)methyl)amino)-2-(2,6-dioxopiperidin-3-yl)isoindoline-1,3-dione], for which the IC50 in test [1] (setting [3]) was 10 to 100 nM; in test [1] (setting [7]) it was less than 10 nM; in test [2] (setting [5]), less than 10 nM; in test [2] (setting [8]), less than 10 nM.

The values are drawn from US20240050428A1 (Cullgen (Shanghai), Inc., priority 2020, published 2024).
